Laboratory results reported in patent US20050282743A1, “Molecular interactions in cells” (Arbor Vita Corporation, priority 2001, published 2005).
Ends that are not written are not given here. Peptide text beside a SMILES is read from it. * marks the point of attachment. Biotin = O=C1N[C@H]2[C@H](CS[C@H]2CCCCC(=O)*)N1

How the values were obtained:
Assay in all cases: G' assay (10 uM PL peptide), results of TABLE 7 and TABLE 12
Assay type in all cases: binding
[1] = system: PDZ protein (GST-PDZ fusion)
Procedure, shortened: (§1)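 Biotin-PL peptide (N-term label), 10 uM vs GST-PDZ; protein 5 ug/ml by default. A450 nm binned: 1 = 0-1, 2 = 1-2, 3 = 2-3, 4 = 3-4, 5 = >4 on >2 repeats, 0 = no binding.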

[2] = target: T1, PDZ protein (GST-PDZ fusion) (Homo sapiens, UniProt Q6P0Q8)
T1 construct: made in house; host or cells: E. coli (DH5alpha, BL21 or JM109)
Procedure, shortened: as §1

[3] = target: T2, PDZ protein (GST-PDZ fusion) (Homo sapiens, UniProt Q12923)
T2 construct: made in house; host or cells: E. coli (DH5alpha, BL21 or JM109)
Procedure, shortened: as §1

[4] = target: T3, PDZ protein (GST-PDZ fusion) (Homo sapiens, UniProt Q96JH8); settings: PDZ FLJ 10324, PDZ Domain 1
T3 construct: made in house; host or cells: E. coli (DH5alpha, BL21 or JM109)
T3 sequence (Q96JH8 1-1075): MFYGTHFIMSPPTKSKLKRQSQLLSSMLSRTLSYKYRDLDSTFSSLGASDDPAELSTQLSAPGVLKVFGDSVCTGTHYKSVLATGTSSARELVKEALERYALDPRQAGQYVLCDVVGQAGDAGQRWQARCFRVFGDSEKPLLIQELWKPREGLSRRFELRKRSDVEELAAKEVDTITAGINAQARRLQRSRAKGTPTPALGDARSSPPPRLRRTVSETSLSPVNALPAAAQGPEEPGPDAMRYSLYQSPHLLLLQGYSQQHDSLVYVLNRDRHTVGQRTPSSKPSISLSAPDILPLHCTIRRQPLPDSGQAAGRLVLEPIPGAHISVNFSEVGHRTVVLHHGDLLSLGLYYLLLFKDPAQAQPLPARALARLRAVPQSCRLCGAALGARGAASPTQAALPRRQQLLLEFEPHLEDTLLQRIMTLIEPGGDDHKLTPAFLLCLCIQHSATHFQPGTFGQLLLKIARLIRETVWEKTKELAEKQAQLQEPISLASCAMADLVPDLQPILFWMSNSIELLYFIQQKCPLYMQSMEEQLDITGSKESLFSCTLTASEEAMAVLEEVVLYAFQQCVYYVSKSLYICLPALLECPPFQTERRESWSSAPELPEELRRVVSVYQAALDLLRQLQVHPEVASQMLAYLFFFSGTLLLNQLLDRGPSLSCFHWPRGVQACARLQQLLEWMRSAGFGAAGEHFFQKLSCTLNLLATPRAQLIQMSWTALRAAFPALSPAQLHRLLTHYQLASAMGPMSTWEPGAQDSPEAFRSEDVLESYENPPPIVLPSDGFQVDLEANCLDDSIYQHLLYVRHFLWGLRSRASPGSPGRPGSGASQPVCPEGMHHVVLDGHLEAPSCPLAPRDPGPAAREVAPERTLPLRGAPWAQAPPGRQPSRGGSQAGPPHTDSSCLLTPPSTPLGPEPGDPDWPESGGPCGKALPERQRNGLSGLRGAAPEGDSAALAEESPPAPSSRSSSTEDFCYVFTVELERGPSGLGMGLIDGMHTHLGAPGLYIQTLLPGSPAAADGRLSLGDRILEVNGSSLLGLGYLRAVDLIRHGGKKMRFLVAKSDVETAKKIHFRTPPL
Procedure, shortened: as §1

[5] = target: T4, PDZ protein (GST-PDZ fusion) (Homo sapiens, UniProt O75970)
T4 construct: made in house; host or cells: E. coli (DH5alpha, BL21 or JM109)
Procedure, shortened: as §1

[6] = PDZ HEMBA 1003117, PDZ Domain 1
[7] = PDZ KIAA807, PDZ Domain not given

T1 sequence (Q6P0Q8 whole entry, the tested form may be a part): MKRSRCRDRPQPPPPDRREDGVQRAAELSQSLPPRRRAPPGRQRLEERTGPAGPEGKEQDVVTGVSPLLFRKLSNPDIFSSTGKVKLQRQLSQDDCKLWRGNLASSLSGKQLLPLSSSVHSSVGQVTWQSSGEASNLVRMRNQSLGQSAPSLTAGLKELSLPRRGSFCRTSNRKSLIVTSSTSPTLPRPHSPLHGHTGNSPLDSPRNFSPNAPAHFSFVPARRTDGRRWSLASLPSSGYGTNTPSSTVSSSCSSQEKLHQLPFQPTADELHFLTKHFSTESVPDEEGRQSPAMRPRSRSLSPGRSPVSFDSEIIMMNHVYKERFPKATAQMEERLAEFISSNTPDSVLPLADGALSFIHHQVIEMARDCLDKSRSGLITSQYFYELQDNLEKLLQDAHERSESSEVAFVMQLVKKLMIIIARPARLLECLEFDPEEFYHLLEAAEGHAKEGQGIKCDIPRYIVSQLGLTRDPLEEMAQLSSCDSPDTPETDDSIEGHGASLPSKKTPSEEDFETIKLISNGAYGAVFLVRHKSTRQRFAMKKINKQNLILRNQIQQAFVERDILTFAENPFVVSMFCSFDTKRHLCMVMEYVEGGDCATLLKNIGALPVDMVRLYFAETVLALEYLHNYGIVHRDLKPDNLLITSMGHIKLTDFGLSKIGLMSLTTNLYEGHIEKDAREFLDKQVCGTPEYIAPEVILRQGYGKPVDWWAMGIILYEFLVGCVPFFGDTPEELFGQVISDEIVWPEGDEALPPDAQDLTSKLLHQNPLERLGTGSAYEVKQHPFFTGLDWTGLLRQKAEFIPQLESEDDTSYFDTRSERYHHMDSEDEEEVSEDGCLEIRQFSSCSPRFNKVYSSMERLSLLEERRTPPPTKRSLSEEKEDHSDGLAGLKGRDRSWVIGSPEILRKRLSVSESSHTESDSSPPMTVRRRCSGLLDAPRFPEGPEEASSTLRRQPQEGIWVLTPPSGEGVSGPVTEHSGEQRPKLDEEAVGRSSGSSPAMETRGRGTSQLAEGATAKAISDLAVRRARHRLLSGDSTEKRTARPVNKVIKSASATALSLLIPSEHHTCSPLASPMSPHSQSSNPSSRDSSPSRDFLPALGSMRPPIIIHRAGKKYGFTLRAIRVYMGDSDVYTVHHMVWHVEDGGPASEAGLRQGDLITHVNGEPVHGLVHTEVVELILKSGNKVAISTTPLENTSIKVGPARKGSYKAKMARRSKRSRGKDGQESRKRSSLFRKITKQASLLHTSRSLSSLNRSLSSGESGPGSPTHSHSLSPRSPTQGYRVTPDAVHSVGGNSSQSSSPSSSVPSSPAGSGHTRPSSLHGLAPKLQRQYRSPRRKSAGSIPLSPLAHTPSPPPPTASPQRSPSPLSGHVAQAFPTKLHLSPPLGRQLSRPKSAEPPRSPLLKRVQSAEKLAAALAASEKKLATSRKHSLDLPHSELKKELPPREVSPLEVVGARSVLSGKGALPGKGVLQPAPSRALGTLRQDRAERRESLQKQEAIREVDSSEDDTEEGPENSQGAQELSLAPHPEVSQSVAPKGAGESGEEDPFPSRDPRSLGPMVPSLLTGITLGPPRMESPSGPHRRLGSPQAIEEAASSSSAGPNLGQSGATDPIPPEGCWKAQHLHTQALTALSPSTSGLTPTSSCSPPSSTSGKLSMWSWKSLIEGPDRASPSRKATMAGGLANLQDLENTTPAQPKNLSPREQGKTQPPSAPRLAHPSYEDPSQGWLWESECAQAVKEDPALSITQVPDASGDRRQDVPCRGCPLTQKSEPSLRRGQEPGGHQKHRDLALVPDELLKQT
T2 sequence (Q12923 whole entry, the tested form may be a part): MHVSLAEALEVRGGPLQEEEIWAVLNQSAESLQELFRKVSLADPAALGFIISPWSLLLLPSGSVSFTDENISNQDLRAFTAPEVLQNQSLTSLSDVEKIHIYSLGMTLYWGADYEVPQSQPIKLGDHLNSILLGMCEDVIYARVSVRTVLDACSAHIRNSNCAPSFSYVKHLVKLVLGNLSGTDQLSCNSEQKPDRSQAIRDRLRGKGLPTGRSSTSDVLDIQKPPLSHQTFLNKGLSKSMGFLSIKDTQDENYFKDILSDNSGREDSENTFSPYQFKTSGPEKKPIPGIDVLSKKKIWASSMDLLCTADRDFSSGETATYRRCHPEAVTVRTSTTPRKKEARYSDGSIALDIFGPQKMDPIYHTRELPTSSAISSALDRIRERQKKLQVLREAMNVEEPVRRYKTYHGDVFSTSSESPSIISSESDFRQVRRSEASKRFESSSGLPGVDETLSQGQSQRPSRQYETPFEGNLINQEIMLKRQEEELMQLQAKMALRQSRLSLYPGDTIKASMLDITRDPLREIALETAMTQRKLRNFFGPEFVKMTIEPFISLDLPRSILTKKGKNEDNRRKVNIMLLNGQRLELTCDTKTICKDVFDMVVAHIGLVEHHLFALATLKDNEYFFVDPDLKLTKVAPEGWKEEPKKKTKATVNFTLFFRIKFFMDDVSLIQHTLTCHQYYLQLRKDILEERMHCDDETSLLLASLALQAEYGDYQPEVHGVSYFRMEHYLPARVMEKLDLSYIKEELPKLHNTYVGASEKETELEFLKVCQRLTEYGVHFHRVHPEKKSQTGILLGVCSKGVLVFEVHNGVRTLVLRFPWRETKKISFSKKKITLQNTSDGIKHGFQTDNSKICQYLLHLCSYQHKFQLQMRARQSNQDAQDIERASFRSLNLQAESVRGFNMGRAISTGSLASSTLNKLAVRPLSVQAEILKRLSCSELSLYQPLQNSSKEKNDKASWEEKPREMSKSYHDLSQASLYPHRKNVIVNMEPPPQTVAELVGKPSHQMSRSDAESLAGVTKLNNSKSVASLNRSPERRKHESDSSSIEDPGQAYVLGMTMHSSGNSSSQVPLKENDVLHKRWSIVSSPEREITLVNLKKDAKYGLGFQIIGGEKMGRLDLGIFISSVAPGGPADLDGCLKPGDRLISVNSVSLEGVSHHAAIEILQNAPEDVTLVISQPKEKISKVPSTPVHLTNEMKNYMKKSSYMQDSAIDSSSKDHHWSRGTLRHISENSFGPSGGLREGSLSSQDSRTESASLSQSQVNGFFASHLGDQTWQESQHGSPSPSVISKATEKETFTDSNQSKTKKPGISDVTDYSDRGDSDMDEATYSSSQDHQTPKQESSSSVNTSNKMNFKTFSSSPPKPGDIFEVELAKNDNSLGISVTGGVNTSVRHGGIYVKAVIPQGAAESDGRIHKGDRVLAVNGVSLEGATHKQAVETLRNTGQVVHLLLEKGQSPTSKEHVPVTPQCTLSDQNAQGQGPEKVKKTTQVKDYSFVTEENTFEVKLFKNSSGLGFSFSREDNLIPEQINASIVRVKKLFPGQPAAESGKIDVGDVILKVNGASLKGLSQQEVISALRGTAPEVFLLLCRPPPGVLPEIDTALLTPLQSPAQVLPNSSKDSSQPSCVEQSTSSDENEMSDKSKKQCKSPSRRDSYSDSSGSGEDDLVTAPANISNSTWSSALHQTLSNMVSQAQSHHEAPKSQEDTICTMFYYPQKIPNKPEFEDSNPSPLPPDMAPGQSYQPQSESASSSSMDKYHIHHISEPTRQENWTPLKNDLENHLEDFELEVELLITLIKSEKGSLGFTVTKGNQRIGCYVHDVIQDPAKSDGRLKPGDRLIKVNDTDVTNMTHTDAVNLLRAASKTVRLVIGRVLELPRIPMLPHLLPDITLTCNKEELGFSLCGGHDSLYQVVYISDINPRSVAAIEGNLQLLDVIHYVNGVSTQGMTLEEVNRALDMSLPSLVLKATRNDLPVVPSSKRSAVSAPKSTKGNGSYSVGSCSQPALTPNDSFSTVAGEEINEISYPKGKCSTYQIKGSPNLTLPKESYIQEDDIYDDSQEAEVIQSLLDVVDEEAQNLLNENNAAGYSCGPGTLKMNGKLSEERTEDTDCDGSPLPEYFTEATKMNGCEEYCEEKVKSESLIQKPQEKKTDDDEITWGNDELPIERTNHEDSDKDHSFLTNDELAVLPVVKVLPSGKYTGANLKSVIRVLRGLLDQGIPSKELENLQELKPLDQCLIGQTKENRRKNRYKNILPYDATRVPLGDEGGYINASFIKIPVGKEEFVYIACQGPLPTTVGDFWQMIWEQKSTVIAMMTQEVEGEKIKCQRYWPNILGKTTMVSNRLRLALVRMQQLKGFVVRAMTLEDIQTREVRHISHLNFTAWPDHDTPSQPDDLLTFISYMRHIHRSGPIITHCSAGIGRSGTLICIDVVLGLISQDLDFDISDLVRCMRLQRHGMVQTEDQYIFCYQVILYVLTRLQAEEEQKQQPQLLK

Molecule	Classification ([2]; PDZ KIAA0807(S), PDZ Domain 1)	Classification ([3]; PDZ PTPL-1, PDZ Domain 2)	Classification [4]	Classification [2, 7]	Classification ([1]; PDZ BAI-1, PDZ Domain 6)	Classification ([1]; PDZ SHANK, PDZ Domain 1)	also measured
CC(C)C[C@H](NC(=O)[C@H](CC(C)C)NC(=O)[C@@H](NC(=O)[C@H](CC(=O)O)NC(=O)CCCC[C@@H]1SC[C@@H]2NC(=O)N[C@@H]21)[C@@H](C)O)C(=O)N[C@@H](CC(C)C)C(=O)N[C@H](C(=O)N[C@@H](CCC(=O)O)C(=O)N[C@@H](CC(N)=O)C(=O)N[C@@H](CCC(=O)O)C(=O)NCC(=O)N[C@@H](CC(=O)O)C(=O)N[C@@H](CCCCN)C(=O)N[C@H](C(=O)N[C@@H](CCC(=O)O)C(=O)N[C@@H](CCC(=O)O)C(=O)N[C@@H](CCC(N)=O)C(=O)N[C@H](C(=O)N[C@@H](CO)C(=O)N[C@@H](Cc1ccc(O)cc1)C(=O)N[C@H](C(=O)O)C(C)C)C(C)C)[C@@H](C)O)[C@@H](C)O [5H2B_HUMAN] (Biotin-DTLLLTENEGDKTEEQVSYV-OH; C-terminus assumed)	1 (A450 nm 0-1)	5 (A450 nm of 4 more than 2× repeated)	2 (A450 nm 1-2)	–	–	–	Classification ([1]; PDZ BAI-1, PDZ Domain 3): 4 (A450 nm 3-4); Classification [1, 6]: 1 (A450 nm 0-1); Classification ([2]; PDZ KIAA807): 1 (A450 nm 0-1); Classification ([3]; PDZ PTPL-1, PDZ Domain 4): 2 (A450 nm 1-2)
CC[C@H](C)[C@H](NC(=O)[C@H](CCC(=O)O)NC(=O)[C@H](CC(N)=O)NC(=O)[C@H](CCCNC(=N)N)NC(=O)[C@H](Cc1ccccc1)NC(=O)[C@H](CC(N)=O)NC(=O)[C@H](CO)NC(=O)[C@H](CC(N)=O)NC(=O)[C@H](CCC(=O)O)NC(=O)[C@H](CO)NC(=O)[C@H](CC(=O)O)NC(=O)[C@H](CO)NC(=O)[C@@H](NC(=O)[C@@H](NC(=O)[C@H](CC(=O)O)NC(=O)[C@H](CCCCN)NC(=O)CCCC[C@@H]1SC[C@@H]2NC(=O)N[C@@H]21)[C@@H](C)CC)[C@@H](C)O)C(=O)N[C@@H](CCC(N)=O)C(=O)N[C@@H](CO)C(=O)N[C@@H](CC(C)C)C(=O)N[C@H](C(=O)O)C(C)C [CD95] (Biotin-KDITSDSENSNFRNEIQSLV-OH; C-terminus assumed)	–	3 (A450 nm 2-3)	1 (A450 nm 0-1)	–	–	–	Classification ([1]; PDZ BAI-1, PDZ Domain 5): 3 (A450 nm 2-3); Classification ([3]; PDZ PTPL-1, PDZ Domain 4): 1 (A450 nm 0-1)
CC[C@H](C)[C@H](NC(=O)[C@H](C)NC(=O)[C@H](CC(C)C)NC(=O)[C@H](Cc1c[nH]c2ccccc12)NC(=O)[C@H](Cc1c[nH]cn1)NC(=O)[C@H](CCC(N)=O)NC(=O)[C@H](CC(C)C)NC(=O)[C@H](CCC(N)=O)NC(=O)[C@H](Cc1ccccc1)NC(=O)[C@H](CCC(N)=O)NC(=O)[C@H](CCCNC(=N)N)NC(=O)[C@@H](NC(=O)[C@H](CC(=O)O)NC(=O)[C@H](CCCNC(=N)N)NC(=O)[C@H](CCC(N)=O)NC(=O)[C@H](C)NC(=O)[C@@H](NC(=O)[C@H](CC(C)C)NC(=O)[C@H](Cc1c[nH]cn1)NC(=O)[C@H](Cc1c[nH]cn1)NC(=O)CCCC[C@@H]1SC[C@@H]2NC(=O)N[C@@H]21)C(C)C)[C@@H](C)CC)C(=O)O [noradrenaline transporter] (Biotin-HHLVAQRDIRQFQLQHWLAI-OH; C-terminus assumed)	–	–	3 (A450 nm 2-3)	–	–	–	Classification ([5]; PDZ MUPP-1, PDZ Domain 3): 4 (A450 nm 3-4); Classification ([5]; PDZ MUPP-1, PDZ Domain 7): 3 (A450 nm 2-3); Classification ([5]; PDZ MUPP-1, PDZ Domain 9): 3 (A450 nm 2-3)
A2AC_HUMAN (Modified) (Biotin-DFRPSFKHILFRRARRGFRQ; not fully specified)	–	–	–	–	–	–	Classification ([3]; PDZ PTPL-1, PDZ Domain 5): 3 (A450 nm 2-3); Classification ([5]; PDZ MUPP-1, PDZ Domain 4): 3 (A450 nm 2-3)
LASKSAEEGKQIPDSLSTDL (Biotin-LASKSAEEGKQIPDSLSTDL) [Dock2]	–	–	1 (A450 nm 0-1)	–	1 (A450 nm 0-1)	1 (A450 nm 0-1)	Classification [1, 6]: 1 (A450 nm 0-1)

The next lines start with results.

Classification ([2]; PDZ KIAA0807(S), PDZ Domain 1)	Classification ([3]; PDZ PTPL-1, PDZ Domain 2)	Classification [4]	Classification [2, 7]	Molecule	Classification ([1]; PDZ BAI-1, PDZ Domain 6)	Classification ([1]; PDZ SHANK, PDZ Domain 1)	also measured
5 (A450 nm of 4 more than 2× repeated)	1 (A450 nm 0-1)	–	5 (A450 nm of 4 more than 2× repeated)	CC(C)C[C@H](NC(=O)[C@H](CC(=O)O)NC(=O)[C@H](CO)NC(=O)[C@H](CCC(=O)O)NC(=O)CNC(=O)[C@H](Cc1ccc(O)cc1)NC(=O)[C@H](CC(C)C)NC(=O)[C@H](C)NC(=O)[C@H](CO)NC(=O)[C@H](CO)NC(=O)[C@H](Cc1ccccc1)NC(=O)[C@H](C)NC(=O)[C@H](C)NC(=O)[C@H](Cc1ccc(O)cc1)NC(=O)[C@H](CC(=O)O)NC(=O)[C@H](CC(C)C)NC(=O)[C@H](C)NC(=O)CNC(=O)[C@@H]1CCCN1C(=O)[C@@H](NC(=O)CCCC[C@@H]1SC[C@@H]2NC(=O)N[C@@H]21)C(C)C)C(=O)O [a-actinin 2] (Biotin-VPGALDYAAFSSALYGESDL-OH; C-terminus assumed)	5 (A450 nm of 4 more than 2× repeated)	1 (A450 nm 0-1)	Classification ([1]; PDZ BAI-1, PDZ Domain 2): 1 (A450 nm 0-1); Classification ([1]; PDZ LIM Protein, PDZ Domain 1): 4 (A450 nm 3-4); Classification ([1]; PDZ Novel PDZ, PDZ Domain 1): 2 (A450 nm 1-2)
5 (A450 nm of 4 more than 2× repeated)	–	1 (A450 nm 0-1)	–	ALVLIAFCIIRRRPSAYQAL (Biotin-ALVLIAFCIIRRRPSAYQAL) [CD68]	–	1 (A450 nm 0-1)	Classification ([1]; PDZ BAI-1, PDZ Domain 2): 3 (A450 nm 2-3)
5 (A450 nm of 4 more than 2× repeated)	–	1 (A450 nm 0-1)	5 (A450 nm of 4 more than 2× repeated)	PPATPSPRLALPAHHNATRL (Biotin-PPATPSPRLALPAHHNATRL) [Na+/Pi cotransporter 2]	–	5 (A450 nm of 4 more than 2× repeated)	Classification ([5]; PDZ MUPP-1, PDZ Domain 10): 1 (A450 nm 0-1); Classification ([5]; PDZ MUPP-1, PDZ Domain 13): 1 (A450 nm 0-1)
–	2 (A450 nm 1-2)	1 (A450 nm 0-1)	–	SLKPGTVLPPPPYRHRNTVV (Biotin-SLKPGTVLPPPPYRHRNTVV) [ErbB-4 receptor]	–	–	Classification ([1]; PDZ BAI-1, PDZ Domain 3): 1 (A450 nm 0-1)
5 (A450 nm of 4 more than 2× repeated)	5 (A450 nm of 4 more than 2× repeated)	–	4 (A450 nm 3-4)	TQGFPGPATWRRISSLESEV	2 (A450 nm 1-2)	–	Classification ([1]; PDZ BAI-1, PDZ Domain 2): 4 (A450 nm 3-4); Classification ([1]; PDZ BAI-1, PDZ Domain 3): 1 (A450 nm 0-1); Classification ([1]; PDZ BAI-1, PDZ Domain 4): 3 (A450 nm 2-3); Classification ([1]; PDZ BAI-1, PDZ Domain 5): 4 (A450 nm 3-4); Classification ([1]; PDZ FLJ00011 (also printed FLJ 00011), PDZ Domain 1): 2 (A450 nm 1-2); Classification ([1]; PDZ FLJ 11215, PDZ Domain 1): 1 (A450 nm 0-1); Classification ([5]; PDZ MUPP-1, PDZ Domain 5): 1 (A450 nm 0-1); Classification ([5]; PDZ MUPP-1, PDZ Domain 10): 1 (A450 nm 0-1); Classification ([5]; PDZ MUPP-1, PDZ Domain 13): 5 (A450 nm of 4 more than 2× repeated)
5 (A450 nm of 4 more than 2× repeated)	2 (A450 nm 1-2)	–	5 (A450 nm of 4 more than 2× repeated)	VHDAESSDEDGYDWGPATDL (Biotin-VHDAESSDEDGYDWGPATDL) [zona occludens 3 (ZO-3)]	2 (A450 nm 1-2)	1 (A450 nm 0-1)	Classification ([1]; PDZ Novel PDZ, PDZ Domain 1): 1 (A450 nm 0-1); Classification ([5]; PDZ MUPP-1, PDZ Domain 7): 1 (A450 nm 0-1); Classification ([5]; PDZ MUPP-1, PDZ Domain 9): 1 (A450 nm 0-1); Classification ([5]; PDZ MUPP-1, PDZ Domain 13): 2 (A450 nm 1-2)
